In patent publication US20210269451A1, “PYRIDINYL HETEROCYCLYL COMPOUNDS FOR THE TREATMENT OF AUTOIMMUNE DISEASE” (Hoffmann-La Roche Inc., priority 2018, published 2021):

molecular target: T1, human TLR7 (Homo sapiens, UniProt Q9NYK1); test: HEK293-Blue-hTLR-7 cells assay; assay type: cell-based; details: HEK293-Blue-hTLR7 cells, R848 stimulation, 20 hrs, SEAP reporter; read-out: HEK/hTLR7 IC50
T1 construct: host or cells: HEK293-Blue-hTLR-7 (HEK293)
T1 sequence (Q9NYK1 27-1049): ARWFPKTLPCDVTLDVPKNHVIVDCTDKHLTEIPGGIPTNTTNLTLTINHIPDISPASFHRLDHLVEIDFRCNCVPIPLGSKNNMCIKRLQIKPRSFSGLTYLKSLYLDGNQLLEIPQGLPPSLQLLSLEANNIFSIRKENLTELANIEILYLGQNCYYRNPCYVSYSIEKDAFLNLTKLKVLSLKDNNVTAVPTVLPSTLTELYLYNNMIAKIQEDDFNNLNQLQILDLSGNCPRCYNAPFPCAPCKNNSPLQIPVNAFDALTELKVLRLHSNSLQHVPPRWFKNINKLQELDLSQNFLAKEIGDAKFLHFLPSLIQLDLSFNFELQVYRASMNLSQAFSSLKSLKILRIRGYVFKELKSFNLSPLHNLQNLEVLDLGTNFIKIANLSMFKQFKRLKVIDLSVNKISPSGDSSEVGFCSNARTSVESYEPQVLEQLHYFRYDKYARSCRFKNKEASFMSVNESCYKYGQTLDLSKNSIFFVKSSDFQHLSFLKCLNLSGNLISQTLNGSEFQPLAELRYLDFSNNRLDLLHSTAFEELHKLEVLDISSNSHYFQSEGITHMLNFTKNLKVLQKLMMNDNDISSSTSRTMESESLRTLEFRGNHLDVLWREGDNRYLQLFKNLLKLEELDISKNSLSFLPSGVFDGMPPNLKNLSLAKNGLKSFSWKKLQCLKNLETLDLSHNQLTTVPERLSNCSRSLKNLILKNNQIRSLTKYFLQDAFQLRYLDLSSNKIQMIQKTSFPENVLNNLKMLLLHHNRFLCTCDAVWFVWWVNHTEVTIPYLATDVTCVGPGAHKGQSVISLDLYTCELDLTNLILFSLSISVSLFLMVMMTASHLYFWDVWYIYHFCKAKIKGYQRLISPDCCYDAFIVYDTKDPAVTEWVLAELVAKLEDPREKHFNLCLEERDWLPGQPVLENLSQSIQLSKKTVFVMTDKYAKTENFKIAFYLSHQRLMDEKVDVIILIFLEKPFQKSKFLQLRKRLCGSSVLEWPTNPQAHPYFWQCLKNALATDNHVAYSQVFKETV
Protocol: The following tests were carried out in order to determine the activity of the compounds of formula (I) and (Ia) in HEK293-Blue-hTLR-7/8/9 cells assay.
HEK293-Blue-hTLR-7 cells assay:
A stable HEK293-Blue-hTLR-7 cell line was purchased from InvivoGen (Cat. #: hkb-htlr7, San Diego, Calif., USA). These cells were originally designed for studying the stimulation of human TLR7 by monitoring the activation of NE-κB. A SEAP (secreted embryonic alkaline phosphatase) reporter gene was placed under the control of the IFN-β minimal promoter fused to five NE-κB and AP-1-binding sites. The SEAP was induced by activating NE-κB and AP-1 via stimulating HEK-Blue hTLR7 cells with TLR7 ligands. Therefore the reporter expression was declined by TLR7 antagonist under the stimulation of a ligand, such as R848 (Resiquimod), for incubation of 20 hrs. The cell culture supernatant SEAP reporter activity was determined using QUANTI-Blue™ kit (Cat. #: rep-qbl, Invivogen, San Diego, Ca, USA) at a wavelength of 640 nm, a detection medium that turns purple or blue in the presence of alkaline phosphatase.
HEK293-Blue-hTLR7 cells were incubated at a density of 250,000-450,000 cells/mL in a volume of 170 μL in a 96-well plate in Dulbecco's Modified Eagle's medium (DMEM) containing 4.5 g/L glucose, 50 U/mL penicillin, […], […], 2 mM L-glutamine, 10% (v/v) heat-inactivated fetal bovine serum with addition of 20 μL test compound in a serial dilution in the presence of final DMSO at 1% and 10 μL of 20 uM R848 in above DMEM, perform incubation under 37° C. in a CO2 incubator for 20 hrs. Then 20 μL of the supernatant from each well was incubated with 180 μL Quanti-blue substrate solution at 37° C. for 2 hrs and the absorbance was read at 620˜655 nm using a spectrophotometer. The signalling pathway that TLR7 activation leads to downstream NE-κB activation has been widely accepted, and therefore similar reporter assay was modified for evaluating TLR7 antagonist.

SMILES	IC50 [nM]
Cc1cc(NC2CCN(C[C@H]3CN(c4ccc(C#N)c5ncccc45)C[C@@H](C)O3)CC2)cc(CO)n1 [Example 5]	59
Cc1cc(N2CC[C@@H](NC[C@H]3CN(c4ccc(C#N)c5ncccc45)C[C@@H](C)O3)C2)cc(CO)n1 [Example 28]	122
C[C@@H]1CN(c2ccc(C#N)c3ncccc23)C[C@H](CNC2CCN(c3ccnc(N)c3)CC2)O1 [Example 20, 5-[(2S,6R)-2-[[[1-(2-amino-4-pyridyl)-4-piperidyl]amino]methyl]-6-methyl-morpholin-4-yl]quinoline-8-carbonitrile]	200
C[C@@H]1CN(c2ccc(C#N)c3ncccc23)C[C@H](CN2CCN(c3ccnc(N)c3)CC2)O1 [Example 19, 5-[(2S,6R)-2-[[4-(2-amino-4-pyridyl)piperazin-1-yl]methyl]-6-methyl-morpholin-4-yl]quinoline-8-carbonitrile]	6
Cc1cc(C2CCN(C[C@H]3CN(c4ccc(C#N)c5ncccc45)C[C@@H](C)O3)CC2)cc(N)n1 [Example 43, 5-[(2S,6R)-2-[[4-(2-amino-6-methyl-4-pyridyl)-1-piperidyl]methyl]-6-methyl-morpholin-4-yl]quinoline-8-carbonitrile]	7
Cc1cc(N2CC(NC[C@H]3CN(c4ccc(C#N)c5ncccc45)C[C@@H](C)O3)CC(F)(F)C2)cc(CO)n1 (some centres unmarked) [Example 36]	17
C[C@@H]1CN(c2ccc(C#N)c3ncccc23)C[C@H](CN2CC3(C2)CN(c2ccnc(C4CC4)c2)CCO3)O1 [Example 3, 5-[(2S,6R)-2-[[8-(2-cyclopropyl-4-pyridyl)-5-oxa-2,8-diazaspiro[3.5]nonan-2-yl]methyl]-6-methyl-morpholin-4-yl]quinoline-8-carbonitrile]	< 3
Cc1cc(NC2CN(C[C@H]3CN(c4ccc(C#N)c5ncccc45)C[C@@H](C)O3)C2)cc(C)n1 [Example 7]	26
